From patent publication US20190085289A1, “COMPOSITIONS AND METHODS FOR PATHOGEN INACTIVATION OF PLATELETS” (Cerus Corporation, priority 2017, published 2019)
Marks after values point to notes of the source that are not given here.

Assays:
[1] = Post-UVA residual S-59 concentration in FCV-spiked platelets (HPLC); format: physicochemical; conditions: for Post-UVA S-59 concentration: UVA ~3 J/cm^2
Experimental: An additional study was performed to evaluate the level of FCV inactivation with decreasing amounts of S-59 after extended incubation (e.g., pre-incubation) in PAS/Plasma. In this study, platelets in PAS/Plasma (65%/35%) were spiked with a stock of FCV at a 1:100 dilution. The FCV-spiked platelets were then split into 16 separate test units. Each unit was dosed with S-59 at approximately 150 μM, 90 μM, 30 μM or 15 μM concentration. Following the addition of S-59 in one of four dosing groups, the platelet units in each dosing group were incubated for 0, 4, 8 or 24 hr prior to illumination. A control sample was taken from each unit for virus titer determination and HPLC analysis of S-59 concentration pre-UVA treatment, followed by UVA light exposure at ˜3 J/cm^2 for photochemical treatment of the test samples. Following UVA treatment, the control and test samples were evaluated for inactivation of FCV using a standard virological plaque assay.
HPLC analysis also was performed to determine the amount (e.g., concentration) of S-59 remaining in samples after UVA illumination and photoconversion (Table 10).

[2] = Stability and photoconversion of S-59 in 65% PAS/35% plasma with platelets (HPLC); format: physicochemical; conditions: for S-59 UV peak area (HPLC) / S-59 concentration (HPLC): 150 μM in 65% InterSol PAS/35% plasma with platelets
Experimental: A further study evaluated stability and photoconversion of amotosalen (S-59) in PAS with added plasma, and also containing platelets. S-59 was added at a concentration of 150 μM to 65% InterSol® PAS and 35% plasma a suspended preparation of platelets, and the admixture maintained in a platelet incubator during the study time course. Samples were removed for HPLC analysis at times 0, 5, 21, 29 and 48 hours, and the mixture was then treated with ˜3 J of UVA light at 55 hours with a post-UVA sample also analyzed by HPLC for both S-59 and photoproducts. […] Peak D and Peak E photoproducts were not detected (Table 3).

[3] = Stability of S-59 in InterSol PAS under ambient light (HPLC); format: physicochemical; conditions: for S-59 UV peak area (HPLC) / S-59 concentration (HPLC): 230 μM in InterSol PAS, room temp
Experimental: Initial studies evaluated stability of the pathogen inactivation compound amotosalen (S-59) that was formulated in a platelet additive solution (PAS). A 230 μM solution of psoralen compound S-59 (Irsch et al., Transfus Med Hemother, 38: 19-31 (2011)) was prepared in the commercially available PAS solution InterSol® (Fenwal Inc.) and maintained at room temperature under ambient light conditions. HPLC analysis was performed on samples at times listed in Table 1 for both S-59 and photoproducts. […] S-59 data are shown as both concentration (μM), as well as peak area (S-59 UV) for relative comparison to any photoproducts detected with HPLC (Table 1). Peak D and Peak E photoproducts also were observed by 22 hr and 72 hr, respectively, as well as process impurity decomposition product 4′-HMT, with peak area values indicated (Table 1).

[4] = test system: Caliciviruses, such as feline calicivirus (FCV); conditions: photochemical inactivation, Irsch et al. 2011; cited from earlier work
calicivirus FCV = experiment: FCV inactivation with 150 μM S-59 after pre-incubation in PAS/Plasma, plaque assay; format: cell-based, feline calicivirus (FCV); conditions: for Normalized FCV Log Inactivation/mL / FCV Log Inactivation/mL / FCV Titer, 3J TEST: S-59 ~150 μM, UVA ~3 J/cm^2; for Normalized FCV Log Inactivation/mL: normalized to the FCV pool titer; for FCV Log Inactivation/mL: vs 0J control of same time; for FCV Titer, 3J TEST: platelets in PAS/Plasma 65%/35%
Experimental: From the results of Examples 1 and 2, showing that amotosalen is stable in PAS and PAS/Plasma, an additional study was performed that evaluated the level of inactivation of the calicivirus FCV with S-59 after extended incubation in PAS/Plasma. In this study, platelets in PAS/Plasma (65%/35%) were pooled to approximately 1320 mL, with approximately 16×10^11 total platelets, and spiked with a stock of the calicivirus FCV at a 1:100 dilution. A sample was taken from the FCV-spiked platelet pool to determine initial titer. The FCV-spiked platelets were then split into 5 units, at approximately 260 mL each, with approximately 3.2×10^11 platelets per unit. Each unit was dosed with S-59 at approximately 150 μM concentration, which is the concentration used commercially in the INTERCEPT® Blood System for pathogen inactivation treatment. Following the addition of S-59, the platelet units were incubated for 0, 2, 4, 8 or 24 hr. A control sample was taken at each time point for virus titer determination and HPLC analysis of S-59 concentration pre-UVA treatment, followed by UVA light exposure at ˜3 J/cm^2 to complete the photochemical treatment process for all test samples. Following UVA treatment, the control and test samples were evaluated for inactivation of FCV using a standard virological plaque assay.

Which results are given for `Cc1oc2c(C)c3oc(=O)cc(C)c3cc2c1COCCN` [S-59, 3-(2-aminoethoxymethyl)-2,5,9-trimethylfuro[3,2-g]chromen-7-one]?
Post-UVA S-59 concentration ([1]; Input S-59 15 μM, pre-incubation 0 hr): 3 µM; Post-UVA S-59 concentration ([1]; Input S-59 15 μM, pre-incubation 4 hr): 2 µM; Post-UVA S-59 concentration ([1]; Input S-59 15 μM, pre-incubation 8 hr): 2 µM; Post-UVA S-59 concentration ([1]; Input S-59 15 μM, pre-incubation 24 hr): 2 µM; Post-UVA S-59 concentration ([1]; Input S-59 30 μM, pre-incubation 0 hr): 5 µM; Post-UVA S-59 concentration ([1]; Input S-59 30 μM, pre-incubation 4 hr): 2 µM; Post-UVA S-59 concentration ([1]; Input S-59 30 μM, pre-incubation 8 hr): 2 µM; Post-UVA S-59 concentration ([1]; Input S-59 30 μM, pre-incubation 24 hr): 3 µM; Post-UVA S-59 concentration ([1]; Input S-59 90 μM, pre-incubation 0 hr): 14 µM; Post-UVA S-59 concentration ([1]; Input S-59 90 μM, pre-incubation 4 hr): 10 µM; Post-UVA S-59 concentration ([1]; Input S-59 90 μM, pre-incubation 8 hr): 11 µM; Post-UVA S-59 concentration ([1]; Input S-59 90 μM, pre-incubation 24 hr): 9 µM; Post-UVA S-59 concentration ([1]; Input S-59 150 μM, pre-incubation 0 hr): 29 µM; Post-UVA S-59 concentration ([1]; Input S-59 150 μM, pre-incubation 4 hr): 33 µM; Post-UVA S-59 concentration ([1]; Input S-59 150 μM, pre-incubation 8 hr): 22 µM; Post-UVA S-59 concentration ([1]; Input S-59 150 μM, pre-incubation 24 hr): 19 µM; residual S-59 concentration post-treatment ([1]; S-59 dosing groups with pre-incubation, levels reached): less than 5 μM; residual S-59 concentration ([1]; conditions giving high levels of inactivation (e.g., >4 logs)): 2 µM; S-59 UV peak area (HPLC) ([2]; platelet incubator, 5 hr): 1738.331; S-59 concentration (HPLC) ([2]; platelet incubator, 5 hr): 149.30 µM; S-59 UV peak area (HPLC) ([2]; platelet incubator, 21 hr): 1739.214; S-59 concentration (HPLC) ([2]; platelet incubator, 21 hr): 147.81 µM; S-59 UV peak area (HPLC) ([2]; platelet incubator, 29 hr): 1725.882; S-59 concentration (HPLC) ([2]; platelet incubator, 29 hr): 148.04 µM; S-59 UV peak area (HPLC) ([2]; platelet incubator, 48 hr): 1750.513; S-59 concentration (HPLC) ([2]; platelet incubator, 48 hr): 148.06 µM; S-59 UV peak area (HPLC) ([2]; platelet incubator, T 0): 1752.513; S-59 concentration (HPLC) ([2]; platelet incubator, T 0): 148.12 µM; S-59 UV peak area (HPLC) ([2]; 55 hr post-UVA (~3 J UVA)): 274.897; S-59 concentration (HPLC) ([2]; 55 hr post-UVA (~3 J UVA)): 22.71 µM; S-59 remaining in the post-UVA samples ([2]; 150 μM, 55 hour incubation in PAS/plasma with platelets, then ~3 J UVA): 15.3%; loss of S-59 ([2]; PAS/plasma/platelets admixture, prior to the UVA treatment at 55 hours): no loss; S-59 UV peak area (HPLC) ([3]; 5 hr): 3593.309; S-59 concentration (HPLC) ([3]; 5 hr): 230.62 µM; S-59 UV peak area (HPLC) ([3]; 6 hr): 3575.825; S-59 concentration (HPLC) ([3]; 6 hr): 229.50 µM; S-59 UV peak area (HPLC) ([3]; 22 hr): 3485.467; S-59 concentration (HPLC) ([3]; 22 hr): 223.71 µM; S-59 UV peak area (HPLC) ([3]; 30 hr): 3529.854; S-59 concentration (HPLC) ([3]; 30 hr): 226.56 µM; S-59 UV peak area (HPLC) ([3]; 47 hr): 3486.293; S-59 concentration (HPLC) ([3]; 47 hr): 223.76 µM; S-59 UV peak area (HPLC) ([3]; 56 hr): 3440.455; S-59 concentration (HPLC) ([3]; 56 hr): 220.82 µM; S-59 UV peak area (HPLC) ([3]; 72 hr): 3534.894; S-59 concentration (HPLC) ([3]; 72 hr): 226.88 µM; S-59 UV peak area (HPLC) ([3]; 78 hr): 3485.093; S-59 concentration (HPLC) ([3]; 78 hr): 223.69 µM; S-59 UV peak area (HPLC) ([3]; T 0): 3700.439; S-59 concentration (HPLC) ([3]; T 0): 237.49 µM; loss of S-59 ([3]; InterSol PAS, at 78 hours): < 6%; log10 reduction in titer [4]: 1.7-2.4 log10; level of FCV inactivation (calicivirus FCV; S-59/PAS/Plasma incubated 2 or more hours prior to UVA exposure): below the limit of detection; Normalized FCV Log Inactivation/mL (calicivirus FCV; pre-incubation T = 0 hr): 1.4 Log/mL; FCV Log Inactivation/mL (calicivirus FCV; pre-incubation T = 0 hr): 1.2 Log/mL; Normalized FCV Log Inactivation/mL (calicivirus FCV; pre-incubation T = 2 hr): >5.8 Log/mL; FCV Log Inactivation/mL (calicivirus FCV; pre-incubation T = 2 hr): >5.4 Log/mL; Normalized FCV Log Inactivation/mL (calicivirus FCV; pre-incubation T = 4 hr): >5.8 Log/mL; FCV Log Inactivation/mL (calicivirus FCV; pre-incubation T = 4 hr): >5.7 Log/mL; Normalized FCV Log Inactivation/mL (calicivirus FCV; pre-incubation T = 8 hr): >5.8 Log/mL; FCV Log Inactivation/mL (calicivirus FCV; pre-incubation T = 8 hr): >5.2 Log/mL; Normalized FCV Log Inactivation/mL (calicivirus FCV; pre-incubation T = 24 hr): >5.8 Log/mL; FCV Log Inactivation/mL (calicivirus FCV; pre-incubation T = 24 hr): >5.1 Log/mL; FCV Titer, 3J TEST (calicivirus FCV; pre-incubation T = 0 hr): 4.6 Log PFU/mL; FCV Titer, 3J TEST (calicivirus FCV; pre-incubation T = 2 hr): <0.22* Log PFU/mL; FCV Titer, 3J TEST (calicivirus FCV; pre-incubation T = 4 hr): <0.22* Log PFU/mL; FCV Titer, 3J TEST (calicivirus FCV; pre-incubation T = 8 hr): <0.22* Log PFU/mL; FCV Titer, 3J TEST (calicivirus FCV; pre-incubation T = 24 hr): <0.22* Log PFU/mL
